Experimental findings from the supplement of paper PMC9103864 are described below.

In assay [1] the test system is BMSC (primary human bone marrow mesenchymal stromal cells). Description: drug sensitivity score (DSS); higher = more sensitive.
Assay [2] has the same test system. Description: absolute EC50 for viability; higher = less sensitive.

`CNc1nc(Nc2cn(C(C)(C)C#N)nc2C)ncc1C(F)(F)F` [GNE-0877] came in with a drug sensitivity score in assay [1] of 0. In assay [2], the “absolute EC50 for viability” value is above 1 µM.
On the same counts, the results for `COc1cc(C)c(/C=C/C(C)=C/C=C/C(C)=C/C(=O)O)c(C)c1C` [Acitretin] are 0 and above 10 µM.
Turning to `CO[C@H]1C(=O)[C@]2(C)[C@@H](OC)C[C@H]3OC[C@@]3(OC(C)=O)[C@H]2[C@H](OC(=O)c2ccccc2)[C@]2(O)C[C@H](OC(=O)[C@H](O)[C@@H](NC(=O)OC(C)(C)C)c3ccccc3)C(C)=C1C2(C)C` [Cabazitaxel], the drug sensitivity score in assay [1] came to 7.2. Also, the “absolute EC50 for viability” value in assay [2] is above 1 µM.
The matching figures for `CN[C@@H](C)C(=O)N[C@H](C(=O)N1CCC[C@H]1c1nc(C(=O)c2ccc(F)cc2)cs1)C1CCCCC1` [NVP-LCL161]: 0 and above 25 µM.
The matching figures for `Cc1cc([C@@H](C)Nc2ccccc2C(=O)O)c2nc(N3CCOCC3)cc(=O)n2c1` [AZD-6482]: 2.1 and above 2.5 µM.
On the same counts, the results for `CS(=O)(=O)c1ccc(-c2cnc(N)c(C(=O)Nc3ccccc3)n2)cc1` [VE-821] are 0 and above 10 µM.
In assay [1], `Cc1c(N)nc([C@H](CC(N)=O)NC[C@H](N)C(N)=O)nc1C(=O)N[C@H](C(=O)N[C@H](C)[C@@H](O)[C@H](C)C(=O)N[C@H](C(=O)NCCc1nc(-c2nc(C(=O)NCCC[S+](C)C)cs2)cs1)[C@@H](C)O)[C@@H](OC1OC(CO)C(O)C(O)C1OC1OC(CO)C(O)C(OC(N)=O)C1O)c1cnc[nH]1` (stereo partly specified) [Bleomycin] showed a drug sensitivity score of 2.5. Besides, the “absolute EC50 for viability” value in assay [2] was above 10 µM.
Turning to `CC(C)[C@H](C(=O)Nc1ccc(C(=O)NO)cc1)c1ccccc1` [AR-42], the drug sensitivity score in assay [1] turned out to be 7.5. Further, the “absolute EC50 for viability” value in assay [2] was 1.94 µM.
On the same counts, the results for `O=C(O)C(=O)O.[NH-][C@@H]1CCCC[C@H]1[NH-].[Pt+2]` [Oxaliplatin] are 0.7 and above 100 µM.
On the same counts, the results for `CCCCNc1ncc(C(=O)NCc2ccc(-n3ccnc3)cc2)c(NC2CCC(O)CC2)n1` (stereo unspecified) [UNC2881] are 0.1 and above 2.5 µM.
The matching figures for `CCC/C=C/C=C/C(=O)O[C@H]1/C(=C/C(=O)OC)C[C@H]2C[C@H]([C@@H](C)O)OC(=O)C[C@H](O)C[C@@H]3C[C@H](OC(C)=O)C(C)(C)[C@](O)(C[C@@H]4C/C(=C/C(=O)OC)C[C@H](/C=C/C(C)(C)[C@]1(O)O2)O4)O3` [Bryostatin 1]: 0 and above 0.1 µM.
Regarding `C#Cc1cccc(Nc2ncnc3cc(OCCOC)c(OCCOC)cc23)c1` [Erlotinib], in assay [1], the drug sensitivity score was found to be 1.5. Moreover, the “absolute EC50 for viability” value in assay [2] was above 10 µM.
In assay [1], `CC(C)(C)C[C@@H]1N[C@@H](C(=O)N[C@H]2CC[C@H](O)CC2)[C@H](c2cccc(Cl)c2F)[C@]12C(=O)Nc1cc(Cl)ccc12` showed a drug sensitivity score of 10.5. Besides, the “absolute EC50 for viability” value in assay [2] stood at 2.49 µM.
On the same counts, the results for `C[C@@H](C(=O)O)c1ccc(-c2ccccc2)c(F)c1` [Tarenflurbil] are 0 and above 10 µM.
In the case of `O=c1[nH]c(=O)n([C@H]2C[C@H](O)[C@@H](CO)O2)cc1F` [Floxuridine], the drug sensitivity score in assay [1] is 0. Besides, the “absolute EC50 for viability” value in assay [2] was above 10 µM.
For `COc1cc(CCc2cc(NC(=O)c3ccc(N4CC(C)NC(C)C4)cc3)n[nH]2)cc(OC)c1` (stereo unspecified) [AZD4547], in assay [1], the drug sensitivity score amounted to 1. The “absolute EC50 for viability” value in assay [2] is above 1 µM.
The matching figures for `CC[C@H](C)C(=O)O[C@H]1C[C@@H](C)C=C2C=C[C@H](C)[C@H](CC[C@@H]3C[C@@H](O)CC(=O)O3)[C@H]21` [Lovastatin]: 0 and above 10 µM.
The matching figures for `Cn1cc(-c2ccc(F)c(C(F)(F)F)c2)nc1C1CCN(c2ncnc3[nH]ncc23)CC1`: 0 and above 10 µM.
